# Data taken from US20260103465A1, “GLYCOGEN SYNTHASE KINASE 3 INHIBITORS AND USES THEREOF” (The Broad Institute, Inc., priority 2023, published 2026).
# pIC50: −log10 of the molar value. Like-named read-outs stand apart in the source and are kept apart here.
# Legend:
# [1] = target: T1, GSK3a (GST-full length GSK3a) (Homo sapiens, UniProt P49840); assay: GSK3a TR-FRET kinase inhibition assay; type: biochemical
# T1 construct: GST-full length GSK3a [SignalChem G08-10G]; purchased SignalChem G08-10G
# Experimental: (§1) TR-FRET assay was performed in a white, 384 well, low volume, flat bottom plate (Grenier). After a 30 minute preincubation in assay buffer with the indicated concentration of compound, the kinase activity was initiated by the addition of the substrates. 1 nM GSK3a (GST-full length GSK3a [SignalChem G08-10G]) or 1 nM GSK3b (GST-full length GSK3b: [SignalChem G08-9G]) were then incubated at ambient temperature for 100 minutes in 10 μl of 50 mM Tris, pH 7.5, 20 mM MgCl2, 0.05 mM DTT, 100 μg/ml BSA and 1% DMSO, with 200 nM biotinylated peptide substrate (biotinylated and S645 phosphorylated glycogen synthase 631-650) and ATP (e.g., at 2 μM, 4 μM, 10 μM, 100 μM, or 1 mM). The kinase activity was quenched with 2 μl of 250 mM EDTA. A 10 μl volume of 40 nM Strepavidin-d2, 2 nM […] antibody in TR-FRET Detection Buffer (Invitrogen) was then added. After 60 min at room temperature the plate was read on Envision plate reader using Ex: 340 nm, Em: 615 nm and […]. The normalized 665/615 Signal ratio versus log compound concentration was analyzed by XLFIT to yield IC50 values.
# [2] = target: T2, GSK3b (GST-full length GSK3b) (Homo sapiens, UniProt P49841); assay: GSK3b TR-FRET kinase inhibition assay; type: biochemical
# T2 construct: GST-full length GSK3b: [SignalChem G08-9G]; purchased SignalChem G08-9G
# Experimental: as §1
# [3] = 1 mM ATP, Table 5, read-out: GSK3α TR-FRET 1 mM ATP Average IC50
# [4] = 1 mM ATP, Table 5, read-out: GSK3β TR-FRET 1 mM ATP Average IC50
# [5] = 4 μM ATP, read-out: GSK3α TR-FRET 4 μM ATP GMean IC50
# [6] = 2 μM ATP, read-out: GSK3β TR-FRET 2 μM ATP GMean IC50
# [7] = 100 μM ATP, read-out: GSK3a 100 μM ATP Average IC50
# [8] = 1 mM ATP, Table 3, read-out: GSK3a TR-FRET 1 mM ATP Average IC50
# [9] = 100 μM ATP, read-out: GSK3b 100 μM ATP Average IC50
# [10] = 1 mM ATP, Table 3, read-out: GSK3b TR-FRET 1 mM ATP Average IC50
# T2 sequence (P49841 whole entry): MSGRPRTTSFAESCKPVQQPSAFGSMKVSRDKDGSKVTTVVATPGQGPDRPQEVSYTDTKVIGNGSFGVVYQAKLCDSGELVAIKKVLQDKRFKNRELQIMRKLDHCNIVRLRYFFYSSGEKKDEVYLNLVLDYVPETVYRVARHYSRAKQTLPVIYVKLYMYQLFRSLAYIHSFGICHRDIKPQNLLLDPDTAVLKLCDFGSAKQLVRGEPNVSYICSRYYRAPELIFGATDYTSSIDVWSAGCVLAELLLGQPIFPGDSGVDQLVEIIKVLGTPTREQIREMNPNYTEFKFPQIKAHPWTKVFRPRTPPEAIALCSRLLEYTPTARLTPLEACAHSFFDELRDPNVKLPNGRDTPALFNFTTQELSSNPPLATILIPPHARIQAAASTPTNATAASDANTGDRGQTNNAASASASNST
# T1 sequence (P49840 whole entry): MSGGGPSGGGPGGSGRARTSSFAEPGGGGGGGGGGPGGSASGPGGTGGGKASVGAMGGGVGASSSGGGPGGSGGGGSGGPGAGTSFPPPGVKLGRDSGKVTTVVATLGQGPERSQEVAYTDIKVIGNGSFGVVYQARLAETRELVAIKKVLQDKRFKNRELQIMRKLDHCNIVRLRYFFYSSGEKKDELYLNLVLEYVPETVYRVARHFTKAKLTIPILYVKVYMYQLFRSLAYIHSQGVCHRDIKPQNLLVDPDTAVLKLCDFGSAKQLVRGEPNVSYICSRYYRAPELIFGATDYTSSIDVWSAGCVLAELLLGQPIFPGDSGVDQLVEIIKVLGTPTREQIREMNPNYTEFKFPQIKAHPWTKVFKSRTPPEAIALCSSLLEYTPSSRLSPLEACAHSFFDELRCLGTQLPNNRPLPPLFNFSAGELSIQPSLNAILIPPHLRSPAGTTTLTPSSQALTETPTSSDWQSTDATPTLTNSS
SMILES,"pIC50 [1, 3]","pIC50 [2, 4]","pIC50 [1, 5]","pIC50 [2, 6]",further results
"CC(=O)c1cnc2c(c1C#N)C(C)(c1ccccc1)C1=C(CC(C)(C)CC1=O)N2 (single isomer, unassigned) [621A]",4.70 to 5.30,4.70 to 5.30,,,
"CCC1(c2cccc(-c3cnnc(C)c3)c2)C2=C(CC(C)(C)CC2=O)Nc2ncccc21 (single isomer, unassigned) [Compound 1022A]",,,6.00 to 7.00,6.00 to 7.00,
"CCC1(c2cccc(-c3ccccn3)c2)C2=C(CC(C)(C)CC2=O)Nc2ncccc21 (single isomer, unassigned) [Compound 1016B]",,,5.30 to 6.00,< 5.30,
"CC1(C)CC2=C(C(=O)N1)C(C)(c1ccccc1)c1c(ncc(F)c1C#N)N2 (single isomer, unassigned) [604A]",5.30 to 6.00,5.30 to 6.00,,,
"CC1(C)CC(=O)C2=C(C1)Nc1ncc(C3CC3)c(C#N)c1C2(C)c1ccccc1 (single isomer, unassigned) [619B]",4.70 to 5.30,4.70 to 5.30,,,
"CC1(C)CC(=O)C2=C(C1)Nc1ncc(C(F)(F)F)c(C3CC3)c1C2(C)c1ccccc1 (single isomer, unassigned) [642B]",4.70 to 5.30,4.70 to 5.30,,,
"CCC1(c2cccc(C(F)(F)F)c2)C2=C(CC(C)(C)CC2=O)Nc2ncccc21 (single isomer, unassigned) [Compound 1014A]",,,5.30 to 6.00,< 5.30,
CCC1(c2ccccc2)C2=C(CC(C)(C)CC2=O)Nc2ncccc21 (racemic) [Compound 102],,,6.00 to 7.00,6.00 to 7.00,
"CC1(C)CC(=O)C2=C(C1)Nc1ncc(C(F)F)c(C#N)c1C2(C)c1ccccc1 (single isomer, unassigned) [627A]",6.00 to 7.00,6.00 to 7.00,,,
"CCC1(c2cccc(-c3ccncc3)c2)C2=C(CC(C)(C)CC2=O)Nc2ncccc21 (single isomer, unassigned) [Compound 1017B]",,,< 5.30,< 5.30,
"CCC1(c2cccc(-c3ccncc3OC)c2)C2=C(CC(C)(C)CC2=O)Nc2ncc(F)cc21 (single isomer, unassigned) [Compound 1037A]",,,5.30 to 6.00,5.30 to 6.00,
"Cc1ccnc2c1C(C)(c1ccccc1)C1=C(CC(C)(C)CC1=O)N2 (single isomer, unassigned) [Compound 104A]",,,,,"pIC50 [1, 7]: ≥ 7.00; pIC50 [1, 8]: 5.30 to 6.00; pIC50 [2, 9]: 6.00 to 7.00; pIC50 [2, 10]: 5.30 to 6.00"
"CC1(C)CC(=O)C2=C(C1)Nc1nccc(CC(F)(F)F)c1C2(C)c1ccccc1 (single isomer, unassigned) [Compound 132A]",,,,,"pIC50 [1, 8]: 5.30 to 6.00; pIC50 [2, 10]: 5.30 to 6.00"
"CC1(C)CC(=O)C2=C(C1)Nc1ncccc1C2(C)c1cccc(-c2ccncc2)c1 (single isomer, unassigned) [Compound 131B]",,,,,"pIC50 [1, 8]: 5.30 to 6.00; pIC50 [2, 10]: 5.30 to 6.00"
"CC1(C)CC(=O)C2=C(Nc3ncc(C(F)F)c(C#N)c3[C@]2(C)c2ccccc2)[C@@H]1F (single isomer, unassigned) [Compound 633C]",4.70 to 5.30,4.70 to 5.30,,,
"CC1(C)CC(=O)C2=C(C1)Nc1ncc3c(c1C2(C)c1ccccc1)CCC3 (single isomer, unassigned) [Compound 118B]",,,,,"pIC50 [1, 8]: 5.30 to 6.00; pIC50 [2, 10]: 5.30 to 6.00"
"CCC1(c2cccc(-c3ccnc4c3CCCC4)c2)C2=C(CC(C)(C)CC2=O)Nc2ncccc21 (single isomer, unassigned) [Compound 1039A]",,,6.00 to 7.00,6.00 to 7.00,

SMILES,"pIC50 [1, 3]","pIC50 [2, 4]","pIC50 [1, 5]","pIC50 [2, 6]",further results
"CC1(C)CC(=O)C2=C(C1)Nc1ncc(F)c(C3CC3)c1C2(C)c1cccc(S(C)(=O)=O)c1 (single isomer, unassigned) [Compound 153B]",,,,,"pIC50 [1, 8]: 4.70 to 5.30; pIC50 [2, 10]: 4.70 to 5.30"
"CCC1(c2cccc(-c3ccnc(C)c3C)c2)C2=C(CC(C)(C)CC2=O)Nc2ncccc21 (single isomer, unassigned) [147 A]",,,5.30 to 6.00,< 5.30,
"CC1(C)CC(=O)C2=C(Nc3ncc(F)c(C#N)c3[C@@]2(C)c2ccccc2)[C@@H]1F (single isomer, unassigned) [Compound 617B]",6.00 to 7.00,6.00 to 7.00,,,
"CCC1(c2ccccc2)C2=C(CC(C)(C)NC2=O)Nc2ncccc21 (single isomer, unassigned) [Compound 1002A]",,,< 5.30,< 5.30,
"CC1(C)CC(=O)C2=C(C1)Nc1nccc(CC3CC3)c1C2(C)c1ccccc1 (single isomer, unassigned) [Compound 123B]",,,,,"pIC50 [1, 8]: 5.30 to 6.00; pIC50 [2, 10]: 5.30 to 6.00"
"CC1(C)CC(=O)C2=C(C1)Nc1ncc(C(C)(C)C)cc1C2(C)c1ccccc1 (single isomer, unassigned) [Compound 124A]",,,,,"pIC50 [1, 7]: 4.70 to 5.30; pIC50 [1, 8]: 4.70 to 5.30; pIC50 [2, 9]: 4.70 to 5.30; pIC50 [2, 10]: 4.70 to 5.30"
"COc1cncc(F)c1-c1cccc(C2(C)C3=C(CC(C)(C)CC3=O)Nc3ncc(F)cc32)c1 (single isomer, unassigned) [Compound 156B]",,,,,"pIC50 [1, 8]: 4.70 to 5.30; pIC50 [2, 10]: 4.70 to 5.30"
"CCC1(c2cccc(-c3cccnc3)c2)C2=C(CC(C)(C)CC2=O)Nc2ncccc21 (single isomer, unassigned) [Compound 1015B]",,,5.30 to 6.00,< 5.30,
"CC1(C)CC(=O)C2=C(Nc3ncc(F)c(C#N)c3[C@@]2(C)c2ccccc2)[C@H]1F (single isomer, unassigned) [Compound 617D]",6.00 to 7.00,6.00 to 7.00,,,
"CC(C)Oc1cccc(C2(C)C3=C(CC(C)(C)CC3=O)Nc3ncc(C(F)F)c(C#N)c32)c1 (single isomer, unassigned) [650A]",4.70 to 5.30,5.30 to 6.00,,,
"Cc1c(F)cnc2c1C(C)(c1cccc(S(C)(=O)=O)c1)C1=C(CC(C)(C)CC1=O)N2 (single isomer, unassigned) [Compound 144A]",,,,,"pIC50 [1, 8]: 6.00 to 7.00; pIC50 [2, 10]: 6.00 to 7.00"
"CCC1(c2cccc(-c3cnn(C)c3)c2)C2=C(CC(C)(C)CC2=O)Nc2ncccc21 (single isomer, unassigned) [Compound 1018A]",,,< 5.30,< 5.30,
"CC1(C)CC(=O)C2=C(C1)Nc1ncc(I)c(Br)c1C2(C)c1ccccc1 (single isomer, unassigned) [657A]",4.70 to 5.30,4.70 to 5.30,,,
"CC1(C)CC(=O)C2=C(C1)Nc1ncc(C(F)(F)F)c(Cl)c1C2(C)c1ccccc1 (single isomer, unassigned) [Compound 141B]",,,,,"pIC50 [1, 8]: 5.30 to 6.00; pIC50 [2, 10]: 5.30 to 6.00"
"CC1(C)CC(=O)C2=C(C1)Nc1ncc(F)c(C(F)(F)F)c1C2(C)c1cccc(S(C)(=O)=O)c1 (single isomer, unassigned) [Compound 166A]",,,,,"pIC50 [1, 8]: 6.00 to 7.00; pIC50 [2, 10]: 6.00 to 7.00"
"CC1(C)CC(=O)C2=C(C1)Nc1ncc(C#N)c(C#N)c1C2(C)c1ccccc1 (single isomer, unassigned) [605A]",6.00 to 7.00,6.00 to 7.00,,,
"CC1(C)CC2=C(C(=O)N1)C(C)(c1ccccc1)c1c(ncc(C(F)F)c1C#N)N2 (single isomer, unassigned) [628B]",5.30 to 6.00,6.00 to 7.00,,,

# The next lines start with results.
"pIC50 [1, 3]","pIC50 [2, 4]","pIC50 [1, 5]","pIC50 [2, 6]",SMILES,further results
4.70 to 5.30,4.70 to 5.30,,,"Cc1cnc2c(c1C)C(C)(c1ccccc1)C1=C(CC(C)(C)CC1=O)N2 (single isomer, unassigned) [601B]",
4.70 to 5.30,4.70 to 5.30,,,"CC1(C)CC2=C(C(=O)N1)C(C)(c1cccc(S(C)(=O)=O)c1)c1cc(F)cnc1N2 (single isomer, unassigned) [638B]",
5.30 to 6.00,5.30 to 6.00,,,"Cc1cnc2c(c1C)C(C)(c1ccccc1)C1=C(CC(C)(C)CC1=O)N2 (single isomer, unassigned) [601A]",
4.70 to 5.30,5.30 to 6.00,,,"Cn1ncc2c3c(ncc21)NC1=C(C(=O)CC(C)(C)C1)C3(C)c1cccc(S(C)(=O)=O)c1 (single isomer, unassigned) [649A]",
,,5.30 to 6.00,5.30 to 6.00,"CCC1(c2cccc(-c3ccnc(C)c3C)c2)C2=C(CC(C)(C)CC2=O)Nc2ncc(F)cc21 (single isomer, unassigned) [Compound 1035A]",
4.70 to 5.30,4.70 to 5.30,,,"CC1(C)CC2=C(C(=O)N1)C(C)(c1cccc(S(C)(=O)=O)c1)c1cc(C3CC3)cnc1N2 (single isomer, unassigned) [647B]",
6.00 to 7.00,6.00 to 7.00,,,"Cc1ccc(C2(C)C3=C(CC(C)(C)CC3=O)Nc3ncc(F)cc32)cc1S(C)(=O)=O (single isomer, unassigned) [644A]",
,,6.00 to 7.00,< 5.30,"CCC1(c2cccc(-c3ccnn3C)c2)C2=C(CC(C)(C)CC2=O)Nc2ncc(F)cc21 (single isomer, unassigned) [Compound 1025B]",
≥ 7.00,≥ 7.00,,,"CC1(C)CC(=O)C2=C(C1)Nc1ncc(F)cc1C2(C)c1cccc(-c2ccncc2CC(F)(F)F)c1 (single isomer, unassigned) [653B]",
